According to ChEMBL document CHEMBL5150074, “Structure-Based Design of a Dual-Targeted Covalent Inhibitor Against Papain-like and Main Proteases of SARS-CoV-2” (J Med Chem, 2022):
Activity calls are given as the source filed them. The calls are words filed in the database; no cut-off is given here.

Assays:
[1] = molecular target: Replicase polyprotein 1ab (Severe acute respiratory syndrome coronavirus 2) (UniProt P0DTD1); assay: Inhibition of SARS-CoV-2 PLpro expressed in Escherichia coli BL21(DE3) using CBZ-RLRGG-AMC as substrate at 5 uM incubated for 30 mins followed by substrate addition by FRET assay
[2] = molecular target: T1, Replicase polyprotein 1ab (Severe acute respiratory syndrome coronavirus 2, UniProt P0DTD1); assay: Inhibition of SARS-CoV-2 PLpro
[3] = molecular target: Replicase polyprotein 1ab (Severe acute respiratory syndrome coronavirus 2) (UniProt P0DTD1); assay: Inhibition of SARS-CoV-2 MPro expressed in Escherichia coli BL21(DE3) using Dabcyl-KLSAVLQSGERKM-Edans as substrate at 5 uM incubated for 30 mins followed by substrate addition by FRET assay
[4] = molecular target: Replicase polyprotein 1ab (Severe acute respiratory syndrome coronavirus 2) (UniProt P0DTD1); assay: Binding affinity to SARS-CoV-2 MPro expressed in Escherichia coli BL21(DE3) assessed as mass shift at 15 uM incubated for 4 hrs by mass spectrometry analysis
[5] = molecular target: Replicase polyprotein 1ab (Severe acute respiratory syndrome coronavirus 2) (UniProt P0DTD1); assay: Binding affinity to SARS-CoV-2 PLpro expressed in Escherichia coli BL21(DE3) assessed as mass shift at 30 uM incubated for 4 hrs by mass spectrometry analysis
[6] = Drug metabolism in normal saline assessed as conversion of closed form to open form by measuring rate constant at equilibrium at 2 mg/ml measured at 5 hrs by RP-HPLC analysis; assay type: ADME; conditions: buffer
[7] = molecular target: Replicase polyprotein 1ab (Severe acute respiratory syndrome coronavirus 2) (UniProt P0DTD1); assay: Covalent binding affinity to Cys145 residue of SARS-CoV-2 MPro expressed in Escherichia coli BL21(DE3) assessed as trypsin digestion mediated mass shift by mass spectrometry analysis
[8] = molecular target: Replicase polyprotein 1ab (Severe acute respiratory syndrome coronavirus 2) (UniProt P0DTD1); assay: Covalent binding affinity to Cys111 residue of SARS-CoV-2 PLpro expressed in Escherichia coli BL21(DE3) assessed as mass shift at 3 to 15 uM incubated for 4 hrs followed by trypsin digestion by mass spectrometry analysis; conditions: dose 3-15 µM
[9] = molecular target: T1, Replicase polyprotein 1ab; assay: Inhibition of SARS-CoV-2 MPro expressed in Escherichia coli BL21(DE3) using Dabcyl-KLSAVLQSGERKM-Edans as substrate assessed as inhibition constant measured for 30 mins by fluorimetry based microplate reader analysis
[10] = molecular target: Replicase polyprotein 1ab (Severe acute respiratory syndrome coronavirus 2) (UniProt P0DTD1); assay: Inhibition of SARS-CoV-2 MPro expressed in Escherichia coli BL21(DE3) using Dabcyl-KLSAVLQSGERKM-Edans as substrate assessed as inactivation constant measured for 30 mins by fluorimetry based microplate reader analysis
[11] = molecular target: Replicase polyprotein 1ab (Severe acute respiratory syndrome coronavirus 2) (UniProt P0DTD1); assay: Inhibition of SARS-CoV-2 MPro expressed in Escherichia coli BL21(DE3) using Dabcyl-KLSAVLQSGERKM-Edans as substrate assessed as Kinact/Ki measured for 30 mins by fluorimetry based microplate reader analysis
[12] = molecular target: T1, Replicase polyprotein 1ab; assay: Inhibition of SARS-CoV-2 PLpro expressed in Escherichia coli BL21(DE3) using CBZ-RLRGG-AMC as substrate assessed as inhibition constant measured for 30 mins by fluorimetry based microplate reader analysis
[13] = molecular target: Replicase polyprotein 1ab (Severe acute respiratory syndrome coronavirus 2) (UniProt P0DTD1); assay: Inhibition of SARS-CoV-2 PLpro expressed in Escherichia coli BL21(DE3) using CBZ-RLRGG-AMC as substrate assessed as inactivation constant measured for 30 mins by fluorimetry based microplate reader analysis
[14] = molecular target: Replicase polyprotein 1ab (Severe acute respiratory syndrome coronavirus 2) (UniProt P0DTD1); assay: Inhibition of SARS-CoV-2 PLpro expressed in Escherichia coli BL21(DE3) using CBZ-RLRGG-AMC as substrate assessed as Kinact/Ki measured for 30 mins by fluorimetry based microplate reader analysis
[15] = molecular target: Serine/threonine-protein kinase PAK 2 (Homo sapiens) (UniProt Q13177); assay: Inhibition of human PAK2 at 1 uM by DiscoverX KINOMEscan assay relative to control
Sequence of Serine/threonine-protein kinase PAK 2 (Homo sapiens) (Q13177 whole entry): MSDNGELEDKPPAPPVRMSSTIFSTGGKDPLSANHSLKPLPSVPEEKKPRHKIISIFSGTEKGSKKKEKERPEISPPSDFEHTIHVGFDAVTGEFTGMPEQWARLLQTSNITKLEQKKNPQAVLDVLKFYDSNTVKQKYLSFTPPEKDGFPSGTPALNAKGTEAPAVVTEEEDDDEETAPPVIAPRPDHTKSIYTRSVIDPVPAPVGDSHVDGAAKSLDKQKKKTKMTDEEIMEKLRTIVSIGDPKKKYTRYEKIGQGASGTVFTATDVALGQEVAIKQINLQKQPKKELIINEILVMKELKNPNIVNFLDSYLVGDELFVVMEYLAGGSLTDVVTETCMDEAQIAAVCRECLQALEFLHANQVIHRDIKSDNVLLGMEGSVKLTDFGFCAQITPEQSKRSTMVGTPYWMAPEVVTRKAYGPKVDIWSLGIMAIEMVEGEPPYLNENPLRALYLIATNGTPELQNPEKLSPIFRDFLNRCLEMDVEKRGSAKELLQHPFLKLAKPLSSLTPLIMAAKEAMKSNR

[16] = molecular target: Serine/threonine-protein kinase pim-1 (Homo sapiens) (UniProt P11309); assay: Inhibition of human PIM1 at 1 uM by DiscoverX KINOMEscan assay relative to control
Sequence of Serine/threonine-protein kinase pim-1 (Homo sapiens) (P11309 whole entry, looked up): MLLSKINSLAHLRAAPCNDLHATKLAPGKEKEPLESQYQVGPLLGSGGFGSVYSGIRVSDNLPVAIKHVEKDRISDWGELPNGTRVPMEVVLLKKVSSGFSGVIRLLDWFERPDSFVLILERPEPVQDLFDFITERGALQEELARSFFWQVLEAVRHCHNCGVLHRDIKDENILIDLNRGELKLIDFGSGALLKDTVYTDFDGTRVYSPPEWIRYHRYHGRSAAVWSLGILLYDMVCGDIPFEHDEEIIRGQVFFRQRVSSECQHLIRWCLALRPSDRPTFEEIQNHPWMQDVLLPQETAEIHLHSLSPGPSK

[17] = molecular target: T2, Cathepsin B (Homo sapiens, UniProt P07858); assay: Inhibition of His-tagged recombinant human Cathepsin B expressed in HEK293 cells using Z-Leu-Arg-AMC as substrate incubated for 30 mins followed by substrate addition by fluorescence based analysis
[18] = molecular target: T3, Procathepsin L (Homo sapiens, UniProt P07711); assay: Inhibition of human Cathepsin L using Z-Leu-Arg-AMC as substrate incubated for 30 mins followed by substrate addition by fluorescence based analysis
Target sequence in this assay (P07711 whole entry): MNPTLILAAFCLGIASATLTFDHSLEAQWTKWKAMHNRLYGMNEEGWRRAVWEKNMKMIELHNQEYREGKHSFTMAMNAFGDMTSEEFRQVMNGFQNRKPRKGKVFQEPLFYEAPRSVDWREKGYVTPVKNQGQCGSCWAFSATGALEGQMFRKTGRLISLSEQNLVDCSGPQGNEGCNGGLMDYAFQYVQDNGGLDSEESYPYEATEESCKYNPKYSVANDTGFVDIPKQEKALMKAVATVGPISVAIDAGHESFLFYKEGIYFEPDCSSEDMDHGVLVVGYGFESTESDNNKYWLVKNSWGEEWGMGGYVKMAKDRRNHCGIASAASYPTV

[19] = molecular target: T1, Replicase polyprotein 1ab; assay: Inhibition of SARS-CoV-2 MPro expressed in Escherichia coli BL21(DE3) using Dabcyl-KLSAVLQSGERKM-Edans as substrate incubated for 30 mins followed by substrate addition by FRET assay
[20] = molecular target: T1, Replicase polyprotein 1ab; assay: Inhibition of SARS-CoV-2 PLpro expressed in Escherichia coli BL21(DE3) using CBZ-RLRGG-AMC as substrate incubated for 30 mins followed by substrate addition by FRET assay
[21] = molecular target: T2, Cathepsin B; assay: Reversible inhibition of His-tagged recombinant human Cathepsin B expressed in HEK293 cells using Z-Leu-Arg-AMC as substrate at 120 nM incubated for 2.5 hrs followed by 100 fold dilution and incubated for 5 min and further incubated with substrate by fluorescence based analysis; conditions: time 155.0 min
[22] = molecular target: T3, Procathepsin L; assay: Irreversible inhibition of human Cathepsin L using Z-Leu-Arg-AMC as substrate at 300 nM incubated for 5 hrs followed by 100 fold dilution and incubated for 5 min and further incubated with substrate by fluorescence based analysis; conditions: time 305.0 min
Target sequence in this assay (P07711 114-333 limits assumed): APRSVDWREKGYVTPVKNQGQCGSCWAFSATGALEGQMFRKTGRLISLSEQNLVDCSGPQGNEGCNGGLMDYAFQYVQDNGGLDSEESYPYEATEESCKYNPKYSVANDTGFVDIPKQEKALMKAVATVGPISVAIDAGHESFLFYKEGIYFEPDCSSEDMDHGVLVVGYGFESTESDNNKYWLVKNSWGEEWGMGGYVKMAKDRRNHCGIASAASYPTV

[23] = test system: SARS-CoV-2; assay: Antiviral activity against SARS-CoV-2 infected in Vero E6 cells assessed as reduction in viral nucleoprotein levels at 5 uM pretreated with Vero E6 cells for 1 hr followed by viral infection and further incubated for 1 followed by compound washout and measured after 48 hrs by Hoechst 33258 staining based fluorescence microscopy analysis; assay type: functional, organism-based; conditions: Severe acute respiratory syndrome coronavirus 2, time 2.0 hrs
[24] = test system: SARS-CoV-2; assay: Antiviral activity against SARS-CoV-2 infected in Vero E6 cells assessed as reduction in viral nucleoprotein expression measured after 48 hrs by qRT-PCR analysis; assay type: functional, organism-based; conditions: Severe acute respiratory syndrome coronavirus 2, Vero C1008, 48 h
[25] = test system: SARS-CoV-2; assay: Antiviral activity against SARS-CoV-2 infected in Vero E6 cells assessed as reduction in viral RdRP RNA levels at 15 uM measured after 48 hrs by qRT-PCR analysis; assay type: functional, Severe acute respiratory syndrome coronavirus 2; design: scale not given: the % may be the effect or the level left
[26] = test system: Vero C1008; assay: Cytotoxicity against African green monkey Vero E6 cells infected with SARS-CoV-2 assessed as reduction in cell viability at 15 uM measured after 48 hrs by CCK-8 assay; assay type: toxicity, cell-based; conditions: chlorocebus sabaeus, vero c1008, 48 h
[27] = Toxicity in overnight fasted Kunming mouse assessed as animal death at 400 mg/kg, iv measured after 15 days; assay type: organism-based; conditions: in vivo, 360 h, time 15 day
[28] = Solubility of compound in saline at higher dose; assay type: physicochemical; conditions: buffer
[29] = Acute toxicity in overnight fasted Kunming mouse assessed as animal death at 1050 mg/kg, iv measured after 15 days; assay type: organism-based; conditions: in vivo, 360 h, time 15 day
[30] = Acute toxicity in overnight fasted Kunming mouse assessed as toxic signs at 1050 mg/kg, iv measured after 15 days; assay type: organism-based; conditions: in vivo, 360 h, time 15 day
[31] = Acute toxicity in overnight fasted Kunming mouse assessed as signs of abnormality at 1310 mg/kg, iv measured after 15 days; assay type: organism-based; conditions: in vivo, 360 h, time 15 day
[32] = Acute toxicity in iv dosed overnight fasted Kunming mouse assessed as maximum tolerated dose measured after 15 days; assay type: organism-based; conditions: in vivo, time 15 day
[33] = Acute toxicity in iv dosed overnight fasted Kunming mouse assessed as minimum lethal dose measured after 15 days; assay type: organism-based; conditions: in vivo, 360 h, time 15 day
[34] = Acute toxicity in overnight fasted Kunming mouse assessed as reduction in body weight at 1049 to 4000 mg/kg, iv measured after 15 days; assay type: organism-based; conditions: in vivo, 360 h, dose 1049-4000 mg/kg, time 15 day
[35] = Acute toxicity in Sprague-Dawley rat assessed as reduction in body weight at upto 300 mg/kg, po administered via gavage for 4 weeks followed by recovery for 4 weeks; assay type: organism-based; conditions: in vivo, 1344 h, time 8 weeks
[36] = Acute toxicity in Sprague-Dawley rat assessed as effect on food consumption at upto 300 mg/kg, po administered via gavage for 4 weeks followed by recovery for 4 weeks; assay type: organism-based; conditions: in vivo, 1344 h, time 8 weeks
[37] = Acute toxicity in Sprague-Dawley rat assessed as cellular swelling in hepatocytes at 300 mg/kg, po administered via gavage for 4 weeks; assay type: organism-based; conditions: in vivo, 672 h
[38] = Acute toxicity in Sprague-Dawley rat assessed as cellular swelling in hepatocytes at 300 mg/kg, po administered via gavage for 4 weeks followed by recovery for 4 weeks; assay type: organism-based; conditions: in vivo, 1344 h, time 8 weeks
[39] = molecular target: T1, Replicase polyprotein 1ab; assay: Inhibition of SARS-CoV2 main protease

Compound: CNS(=O)(=O)c1cccc2c1C(=O)C(Nc1ccccc1)=CC2=O
- inhibition [1]: Active

Compound: COC(=O)/C=C/C(=O)NNC(=O)/C=C/c1ccccc1C(=O)N[C@H](C)c1cccc2ccccc12
- IC50 [2]: 0.094 µM

Compound: Cl.O=C1C=C(Nc2ccccc2N2CCNCC2)C2=NS(=O)(=O)c3cccc1c32
- inhibition [3]: Active
- inhibition [1]: Active
- Activity [4]: 392 Da
- Activity [5]: 410 Da
- Ke [6]: 0.012 min⁻¹
- Activity [7]: Active
- Activity [8]: Active
- Ki [9]: 7.1 µM
- Kinact [10]: 0.0048 s⁻¹
- Ratio [11]: 710 M⁻¹ s⁻¹
- Ki [12]: 16 µM
- Kinact [13]: 0.0081 s⁻¹
- Ratio [14]: 500 M⁻¹ s⁻¹
- inhibition [15]: 10%
- inhibition [16]: 35%
- IC50 [17]: 8.8 µM
- IC50 [18]: 2.2 µM
- IC50 [19]: 0.12 µM
- IC50 [20]: 0.99 µM
- inhibition [21]: Active
- inhibition [22]: Active
- Activity [23]: Active
- IC50 [24]: 3.9 µM
- Activity [25]: 99.9%
- Activity [26]: Non-Toxic
- Activity [27]: Non-Toxic
- solubility [28]: Insoluble
- Activity [29]: Non-Toxic
- Activity [30]: Non-Toxic
- Activity [31]: Non-Toxic
- MTD at 360 h [32]: 1000 mg/kg
- MLC [33]: 1300 mg/kg
- Activity [34]: Non-Toxic
- Activity [35]: Non-Toxic
- Activity [36]: Non-Toxic
- Activity [37]: Toxic
- Activity [38]: Non-Toxic

Compound: CC1=NC2C(=O)C(Nc3ccc(C)cc3)=CC(=O)C2S1 (stereo unspecified)
- IC50 [2]: 0.39 µM

Compound: CC(C)C[C@H](NC(=O)[C@@H](NC(=O)OCc1ccccc1)C(C)C)C(=O)N[C@@H](C[C@@H]1CCNC1=O)C(=O)c1nc2ccccc2s1
- Ki [39]: 0.0145 µM
